From patent US20240216355A1, “PHARMACEUTICAL COMPOSITIONS FOR USE IN THE PREVENTION AND TREATMENT OF A DISEASE OR DISORDER CAUSED BY OR ASSOCIATED WITH ONE OR MORE PREMATURE TERMINATION CODONS” (Monte Rosa Therapeutics, Inc., priority 2021, published 2024)

molecular target: T1, GSPT1 (Homo sapiens, UniProt P15170+Q96SW2); test: GSPT1 degradation immunofluorescence assay in CAL-51 cells; assay type: cell-based; settings: 6 hours treatment, compounds 1 to 165, read-out: Activity for GSPT1 degradation (DC50 code)
T1 construct: CAL-51 cells were purchased from DSMZ (cat. Number ACC302); host or cells: CAL-51 cells
T1 sequence (P15170 whole entry): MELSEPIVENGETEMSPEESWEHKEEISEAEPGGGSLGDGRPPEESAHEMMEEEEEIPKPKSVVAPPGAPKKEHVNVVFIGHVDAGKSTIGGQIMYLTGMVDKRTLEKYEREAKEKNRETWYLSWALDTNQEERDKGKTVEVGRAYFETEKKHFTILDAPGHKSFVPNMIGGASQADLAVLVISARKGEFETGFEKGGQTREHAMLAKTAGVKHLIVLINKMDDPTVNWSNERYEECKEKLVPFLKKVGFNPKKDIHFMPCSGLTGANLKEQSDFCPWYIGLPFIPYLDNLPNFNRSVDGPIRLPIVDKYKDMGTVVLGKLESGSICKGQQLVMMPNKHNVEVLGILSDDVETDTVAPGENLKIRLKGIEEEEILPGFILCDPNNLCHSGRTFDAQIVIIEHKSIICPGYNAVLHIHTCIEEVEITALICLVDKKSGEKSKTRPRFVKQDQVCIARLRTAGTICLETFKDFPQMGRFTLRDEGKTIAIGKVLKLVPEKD
T1 sequence (Q96SW2 whole entry): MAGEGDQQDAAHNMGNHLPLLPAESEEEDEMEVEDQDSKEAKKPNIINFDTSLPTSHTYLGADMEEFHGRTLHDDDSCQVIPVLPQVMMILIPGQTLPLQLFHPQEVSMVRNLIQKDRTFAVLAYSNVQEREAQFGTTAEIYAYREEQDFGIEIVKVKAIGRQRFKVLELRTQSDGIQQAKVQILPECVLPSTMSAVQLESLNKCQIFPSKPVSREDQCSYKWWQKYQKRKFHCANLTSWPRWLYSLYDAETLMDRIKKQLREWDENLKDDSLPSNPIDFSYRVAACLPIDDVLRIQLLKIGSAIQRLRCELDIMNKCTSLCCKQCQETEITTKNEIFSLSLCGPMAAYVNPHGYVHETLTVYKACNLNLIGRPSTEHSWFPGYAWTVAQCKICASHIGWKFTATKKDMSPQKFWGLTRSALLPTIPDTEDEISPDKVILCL
T1 sequence (Q16531 whole entry partner): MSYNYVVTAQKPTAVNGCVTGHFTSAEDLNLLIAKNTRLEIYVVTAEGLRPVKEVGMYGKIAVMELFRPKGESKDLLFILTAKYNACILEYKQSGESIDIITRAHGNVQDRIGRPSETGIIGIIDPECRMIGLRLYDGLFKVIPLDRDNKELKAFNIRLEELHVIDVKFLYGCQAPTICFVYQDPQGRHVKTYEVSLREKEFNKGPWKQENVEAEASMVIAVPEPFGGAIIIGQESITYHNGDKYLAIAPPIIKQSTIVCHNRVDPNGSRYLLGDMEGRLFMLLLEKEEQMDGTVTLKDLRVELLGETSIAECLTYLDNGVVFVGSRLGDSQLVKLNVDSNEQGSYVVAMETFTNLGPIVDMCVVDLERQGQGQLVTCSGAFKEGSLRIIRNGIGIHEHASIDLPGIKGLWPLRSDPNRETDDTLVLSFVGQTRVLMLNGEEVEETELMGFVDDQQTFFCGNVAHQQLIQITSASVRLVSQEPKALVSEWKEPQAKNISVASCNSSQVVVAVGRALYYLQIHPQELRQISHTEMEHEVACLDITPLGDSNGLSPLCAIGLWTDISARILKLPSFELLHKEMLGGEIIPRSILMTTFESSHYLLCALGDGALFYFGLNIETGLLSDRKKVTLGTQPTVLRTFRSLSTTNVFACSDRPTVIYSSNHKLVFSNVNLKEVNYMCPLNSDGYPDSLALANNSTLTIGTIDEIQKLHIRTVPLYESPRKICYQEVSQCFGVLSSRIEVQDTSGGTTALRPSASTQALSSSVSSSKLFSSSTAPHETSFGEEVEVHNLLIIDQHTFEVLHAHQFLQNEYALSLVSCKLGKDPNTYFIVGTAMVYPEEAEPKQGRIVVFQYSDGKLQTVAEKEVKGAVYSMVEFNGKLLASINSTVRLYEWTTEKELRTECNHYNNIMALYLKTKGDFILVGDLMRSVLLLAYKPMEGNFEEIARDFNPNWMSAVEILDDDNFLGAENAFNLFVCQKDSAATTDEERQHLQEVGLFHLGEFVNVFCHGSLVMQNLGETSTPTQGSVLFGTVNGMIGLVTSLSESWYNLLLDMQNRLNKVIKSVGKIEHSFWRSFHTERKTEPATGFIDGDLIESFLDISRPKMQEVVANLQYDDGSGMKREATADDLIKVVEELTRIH
Protocol: CAL-51 cells were purchased from DSMZ (cat. Number ACC302), sub-cultured in 90% Dulbecco's MEM (4.5 g/L glucose, Gibco 11965)+10% heat inactivated FBS (BioConcept, 2-01F1361) and incubated at 37° C., 5% CO2. For the assay, imaging microtiterplate Cell Carrier 96 Ultra (Perkin Elmer 6055302) were pre-coated with Fibronectin (Sigma F085, 30 μl at 0.2 μg/ml) in PBS (100p, Gibco 14190) for 45 min at room temperature, rinsed with PBS and CAL-51 cells (30K cells/well) were plated and let to adhere overnight. Cells were treated with compounds typically using a serial dilution ranging from 30 μM to 0.1 nM for 6 hours. Compounds were stored at 10 mM DMSO stocks. Vehicle (DMSO), positive (CC-885, 10 μM) and rescue controls (positive control plus 0.2 μM bortezomib) were also included at this stage. Cells were subsequently rinsed with PBS and fixed in 10% Formalin solution (50p, Sigma HT5011)) for 20 mins at room temperature. Following three consecutive PBS washes (100 μl), cells were permeabilized in 0.1% Triton X-100 in PBS (Sigma 93443, 50 μl) for 15 mins at room temperature. Following three further PBS washes, 50 μl blocking buffer (1% BSA, Sigma A4503, in PBS) was added for 45 min for signal-to-noise reduction. Primary antibody (human GSPT1, Sigma HPA052488) was diluted in blocking buffer (dil.1/300, 35 μl/well) and incubated with the cells overnight at 4° C. After three PBS washes, Alexa-fluor 488 coupled secondary antibodies (Invitrogen, A32731, dil. 1/1000), Alexa-fluor 647-Phalloïdin (Invitrogen, A22287, dil. 1/200) and DAPI (Thermo, #62248, dil.1/1000) were diluted in blocking buffer and incubated with the samples for 2 hours at room temperature. After three final PBS washes, samples were conserved in 100 μl PBS in the dark, until measurement. Image acquisition was performed on the Operetta High-Content Imager (Perkin-Elmer). Fluorescence intensity of Alexa-Fluor 488 (GSPT1), Alexa-Fluor 647 (Actin) and DAPI (Nucleus) were measured. For the determination of GSPT1 DC50 values, a custom algorithm implemented in the PerkinElmer image analysis software Harmony-Acapella@ was developed. After user-defined setting of adjustment parameters, the analysis was run identically without human intervention for all image fields. DAPI staining of the nuclei was used to determine the location of cells using standard nuclei detection modules. Segmentation artifacts were removed by threshold-based filters for area, roundness and intensity. The outline of the cells was determined analogously from the sum of the normalized, smoothed DAPI and Actin channel, starting from each nucleus.
The Alexa-Fluor 488 (GSPT1) signal intensity in each cell was finally measured, in order to obtain a Mean intensity per cell. GSPT1 degradation (DC50) was calculated after normalization to controls and data import in CDD vault Database, using non-linear regression.

| DC50 [µM] | SMILES |
| --- | --- |
| > 0.3 | COc1ccc(CCNC(=O)NCc2ccc3c(c2)C(=O)N(C2CCC(=O)NC2=O)C3)cc1 (stereo not shown) [Compound 51] |

same assay, conditions: 6 hours treatment, compounds 201 to 307, read-out: Activity for GSPT1 degradation (DC50 code)

| SMILES | DC50 [µM] |
| --- | --- |
| Cc1c(F)cc(NC(=O)OCc2ccc3c(c2)C(=O)N(C2CCC(=O)NC2=O)C3)cc1CN1CCOCC1 (stereo not shown) [Compound 241] | < 0.03 |
| Cc1c(Cl)cc(NC(=O)OCc2ccc3c(c2)C(=O)N(C2CCC(=O)NC2=O)C3)cc1CN1CC2CCC(C1)O2 (stereo not shown) [Compound 221] | < 0.03 |
| Cc1c(Cl)cc(NC(=O)OCc2ccc3c(c2)C(=O)N(C2CCC(=O)NC2=O)C3)cc1OCCN1CCOCC1 (stereo not shown) [Compound 248] | < 0.03 |
| O=C1CCC(N2Cc3ccc(COC(=O)Nc4cc(OCCN5CCOCC5)cc(OC(F)F)c4)cc3C2=O)C(=O)N1 (stereo not shown) [Compound 296] | < 0.03 |
| Cc1c(CN2CCOCC2)cc(NC(=O)OCc2ccc3c(c2)C(=O)N(C2CCC(=O)NC2=O)C3)cc1OC(F)(F)F (stereo not shown) [Compound 234] | < 0.03 |
| O=C1CCC(N2Cc3ccc(COC(=O)Nc4cc(CN5CCOCC5)cc(OC(F)F)c4)cc3C2=O)C(=O)N1 (stereo not shown) [Compound 295] | < 0.03 |
| O=C1CCC(N2Cc3ccc(COC(=O)Nc4ccc(F)c(OC(F)(F)F)c4)cc3C2=O)C(=O)N1 (stereo not shown) [Compound 261] | < 0.03 |
| O=C1CCC(N2Cc3ccc(COC(=O)Nc4cc(Cl)cc(OC(F)(F)F)c4)cc3C2=O)C(=O)N1 (stereo not shown) [Compound 211] | < 0.03 |
| CC1CCCN1c1ccc(NC(=O)OCc2ccc3c(c2)C(=O)N(C2CCC(=O)NC2=O)C3)cn1 (stereo not shown) [Compound 274] | < 0.03 |
| O=C1CCC(N2Cc3ccc(COC(=O)Nc4ccc5c(c4)OC(F)(F)O5)cc3C2=O)C(=O)N1 (stereo not shown) [Compound 279] | < 0.03 |
| CC1CCN(c2ccc(NC(=O)OCc3ccc4c(c3)C(=O)N(C3CCC(=O)NC3=O)C4)cn2)C1 (stereo not shown) [Compound 269] | < 0.03 |
| CC(C)(C)c1ccc(NC(=O)OCc2ccc3c(c2)C(=O)N(C2CCC(=O)NC2=O)C3)cc1 (stereo not shown) [Compound 247] | < 0.03 |
| COc1cc(C)c(Cl)cc1NC(=O)OCc1ccc2c(c1)C(=O)N(C1CCC(=O)NC1=O)C2 (stereo not shown) [Compound 201] | < 0.03 |
| O=C1CCC(N2Cc3ccc(COC(=O)Nc4cc(F)cc(OC(F)(F)F)c4)cc3C2=O)C(=O)N1 (stereo not shown) [Compound 257] | < 0.03 |
| CN1CCC(Oc2cc(Cl)cc(NC(=O)OCc3ccc4c(c3)C(=O)N(C3CCC(=O)NC3=O)C4)c2)C1 (stereo not shown) [Compound 246] | < 0.03 |

Continued, values first:

| DC50 [µM] | SMILES |
| --- | --- |
| < 0.03 | Cc1ccc(NC(=O)OCc2ccc3c(c2)C(=O)N(C2CCC(=O)NC2=O)C3)cc1Cl (stereo not shown) [Compound 210] |
| < 0.03 | CCc1ncc(NC(=O)OCc2ccc3c(c2)C(=O)N(C2CCC(=O)NC2=O)C3)cc1C (stereo not shown) [Compound 249] |
| < 0.03 | O=C1CCC(N2Cc3ccc(COC(=O)Nc4ccc(-c5ccccn5)cc4)cc3C2=O)C(=O)N1 (stereo not shown) [Compound 250] |
| < 0.03 | O=C1CCC(N2Cc3ccc(COC(=O)Nc4ccc(-c5ccccc5F)nc4)cc3C2=O)C(=O)N1 (stereo not shown) [Compound 284] |
| < 0.03 | O=C1CCC(N2Cc3ccc(COC(=O)Nc4ccc(-c5ccccc5)nc4)cc3C2=O)C(=O)N1 (stereo not shown) [Compound 242] |
| < 0.03 | O=C1CCC(N2Cc3ccc(COC(=O)Nc4cnc(-c5ccccc5)c(F)c4)cc3C2=O)C(=O)N1 (stereo not shown) [Compound 285] |
| < 0.03 | COc1cc(NC(=O)OCc2ccc3c(c2)C(=O)N(C2CCC(=O)NC2=O)C3)cnc1-c1ccccc1 (stereo not shown) [Compound 290] |
| < 0.03 | CC(C)(C)c1ccc(NC(=O)OCc2ccc3c(c2)C(=O)N(C2CCC(=O)NC2=O)C3)cn1 (stereo not shown) [Compound 243] |
| < 0.03 | O=C1CCC(N2Cc3ccc(COC(=O)Nc4cccc(OC(F)F)c4)cc3C2=O)C(=O)N1 (stereo not shown) [Compound 205] |

molecular target: T2, Full length wild-type cereblon CRBN (Homo sapiens, UniProt Q96SW2); test: Fluorescence polarization (FP) assay indicating cereblon binding; settings: not given
T2 construct: Full length wild-type cereblon CRBN (80.0 nM, 10 μL) was incubated in assay buffer
T2 sequence (Q96SW2 whole entry): as the sequence (Q96SW2 whole entry) above
Protocol: Compound activity was monitored in a fluorescence polarization (FP) homogeneous assay using 1-[5-({2-[2-(2-{[2-(2,6-dioxopiperidin-3-yl)-1,3-dioxo-2,3-dihydro-1H-isoindol-4-yl]oxy}acetamido)ethoxy]ethyl}carbamoyl)pentyl]-3,3-dimethyl-2-[(1E,3E)-5-[(2E)-1,3,3-trimethyl-5-sulfo-2,3-dihydro-1H-indol-2-ylidene]penta-1,3-dien-1-yl]-3H-indol-1-ium-5-sulfonate as a fluorescent probe. Unless otherwise stated, all reagents were purchased from Sigma Aldrich. Enzymatic reactions were conducted in Perkin-Elmer Black 384 well ProxiPlate Plus (catalogue no. 6008269) in 10 μL total volume. Full length wild-type cereblon CRBN (80.0 nM, 10 μL) was incubated in assay buffer containing 20 mM HEPES (pH 8.0), […], 0.5 mM TCEP and 0.05% Tween 20 in the presence or absence of compound (300 nL). Inhibitors were stored as 10 mM DMSO stocks in an inert environment (low humidity, dark, low oxygen, room temperature) using the Storage Pod System. Compounds and DMSO were dispensed using the Echo E5XX (Labcyte Inc. USA) to give concentrations from 300 to 0.937 or 3000 to 9.3 nM in a 12 data point curve. […] Following incubation at room temperature for 30 min, the assay was initiated by dispensing the probe to a final concentration of 5 nM (2.5 nL of a 20 μM stock) using the Echo E5XX. FP was measured after a period of 12 hours using a Pherastar plate reader (BMG Labtech, Germany) exciting at 590 nm and measuring the amount of parallel and perpendicular light at 675 nm. The FP signal was subsequently normalized to the no-compound control (i.e., DMSO). Analysis and IC50 values were derived using Dotmatics (Dotmatics UK) software.

| SMILES | IC50 [µM] |
| --- | --- |
| Cc1c(F)cc(NC(=O)OCc2ccc3c(c2)C(=O)N(C2CCC(=O)NC2=O)C3)cc1CN1CCOCC1 (stereo not shown) [Compound 241] | < 1.1 |
| COc1ccc(CCNC(=O)NCc2ccc3c(c2)C(=O)N(C2CCC(=O)NC2=O)C3)cc1 (stereo not shown) [Compound 51] | < 1.1 |
| CC1(c2ccc(NC(=O)OCc3ccc4c(c3)C(=O)N(C3CCC(=O)NC3=O)C4)cc2)COC1 (stereo not shown) [Compound 262] | < 1.1 |
| O=C1CCC(N2Cc3ccc(COC(=O)Nc4ccc(C5CCC5)nc4)cc3C2=O)C(=O)N1 (stereo not shown) [Compound 305] | < 1.1 |
| O=C1CCC(N2Cc3ccc(COC(=O)Nc4ccc5c(c4)OCC5)cc3C2=O)C(=O)N1 (stereo not shown) [Compound 218] | < 1.1 |
| O=C1CCC(N2Cc3ccc(COC(=O)N4CCCC4)cc3C2=O)C(=O)N1 (stereo not shown) [Compound 226] | < 1.1 |
| Cc1c(Cl)cc(NC(=O)OCc2ccc3c(c2)C(=O)N(C2CCC(=O)NC2=O)C3)cc1OC1CCNC1 (stereo not shown) [Compound 244] | < 1.1 |
| Cc1cc(NC(=O)OCc2ccc3c(c2)C(=O)N(C2CCC(=O)NC2=O)C3)cc(C)n1 (stereo not shown) [Compound 207] | < 1.1 |
| O=C1CCC(N2Cc3ccc(COC(=O)Nc4cnc(N5CCCCC5)c(F)c4)cc3C2=O)C(=O)N1 (stereo not shown) [Compound 272] | < 1.1 |
| Cc1c(Cl)cc(NC(=O)OCc2ccc3c(c2)C(=O)N(C2CCC(=O)NC2=O)C3)cc1OCC1CCNC1 (stereo not shown) [Compound 252] | < 1.1 |
| O=C1CCC(N2Cc3ccc(COC(=O)Nc4ccc5c(c4)CCCO5)cc3C2=O)C(=O)N1 (stereo not shown) [Compound 267] | < 1.1 |
| CN(C)C1CN(c2ccc(NC(=O)OCc3ccc4c(c3)C(=O)N(C3CCC(=O)NC3=O)C4)cn2)C1 (stereo not shown) [Compound 289] | < 1.1 |
| O=C1CCC(N2Cc3ccc(COC(=O)Nc4cc(CN5CC6CC5CO6)cc(OC(F)F)c4)cc3C2=O)C(=O)N1 (stereo not shown) [Compound 300] | < 1.1 |
| O=C1CCC(N2Cc3ccc(COC(=O)Nc4cnc(N5CCCCC5)nc4)cc3C2=O)C(=O)N1 (stereo not shown) [Compound 264] | < 1.1 |
| O=C1CCC(N2Cc3ccc(COC(=O)Nc4cc(OCCN5CCOCC5)cc(OC(F)(F)F)c4)cc3C2=O)C(=O)N1 (stereo not shown) [Compound 306] | < 1.1 |
| O=C1CCC(N2Cc3ccc(COC(=O)Nc4ccc(N5CCOCC5)nc4)cc3C2=O)C(=O)N1 (stereo not shown) [Compound 276] | < 1.1 |
| O=C1CCC(N2Cc3ccc(COC(=O)NC4CCCC4)cc3C2=O)C(=O)N1 (stereo not shown) [Compound 229] | < 1.1 |

More lines, now with the values ahead:

| IC50 [µM] | SMILES |
| --- | --- |
| < 1.1 | CC(NC(=O)OCc1ccc2c(c1)C(=O)N(C1CCC(=O)NC1=O)C2)c1ccccc1 (stereo not shown) [Compound 302] |
| < 1.1 | COc1cc(NC(=O)OCc2ccc3c(c2)C(=O)N(C2CCC(=O)NC2=O)C3)cnc1C (stereo not shown) [Compound 251] |
| < 1.1 | O=C1CCC(N2Cc3ccc(COC(=O)Nc4cccc(OC5CC5)c4)cc3C2=O)C(=O)N1 (stereo not shown) [Compound 293] |
| < 1.1 | O=C1CCC(N2Cc3ccc(COC(=O)Nc4cnc5c(c4)CCC5)cc3C2=O)C(=O)N1 (stereo not shown) [Compound 253] |
| < 1.1 | CCOc1cc(NC(=O)OCc2ccc3c(c2)C(=O)N(C2CCC(=O)NC2=O)C3)ccc1C (stereo not shown) [Compound 233] |
| < 1.1 | COc1cc(Cl)ccc1NC(=O)OCc1ccc2c(c1)C(=O)N(C1CCC(=O)NC1=O)C2 (stereo not shown) [Compound 238] |
| < 1.1 | O=C1CCC(N2Cc3ccc(COC(=O)NCc4ccccc4)cc3C2=O)C(=O)N1 (stereo not shown) [Compound 298] |
